Measurements from patent publication US20240262826A1, “WILD TYPE KIT INHIBITORS” (Blueprint Medicines Corporation, priority 2022, published 2024).

Columns and labels:
wild type c-kit = wild type c-kit (Homo sapiens (Human), UniProt P10721); assay: PathScan phospho c-kit (Tyr719) sandwich ELISA in SCF-stimulated M-07e cells (pKIT assay); type: cell-based; conditions: ELISA assay (values not marked *)
In short: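 Tyr719-phosphorylated c-kit was measured by colorimetric (TMB) sandwich ELISA in lysates of M-07e cells. Cells were starved 4 h without serum or GM-CSF, dosed 60 min at 37 °C with compound (8 points, duplicate, 0.25% DMSO), and stimulated 10 min with human SCF (500 ng/mL as added). IC50 values came from 4-parameter logistic regression.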

[1] = biological target: human P-glycoprotein (P-gp, MDR1) (Homo sapiens (Human), UniProt P08183); assay: MDCK-MDR1 cell monolayer drug transport assay (P-gp efflux ratio); type: in vitro ADME; conditions: pH 7.4, MDCK-MDR1 cells, 1 uM concentration of compound, read-out: Pgp Efflux Ratio, 1 uM
In short: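 P-gp substrate potential tested in MDCK-MDR1 monolayers on Transwell supports, cultured 4-8 days; monolayers with TEER <42 ohms·cm2 discarded. Transport run in HBSS (10 mM HEPES, pH 7.4) at 37° C with compound working solution at 1 μM.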

[2] = tested on: NIH3T3 cell lines that overexpressed the kit mutation exon 9; assay: Exon 9 assay: cell viability (CellCounting Lite 2.0), 72 hours; type: cell-based; conditions: Mus musculus, read-out: IC50 NIH3T3-cKit-AY502-3dup
Description: (§1) Exon 9 assay: The NIH3T3 cell lines that overexpressed the kit mutation exon 9 (or parental cells) were resuscitated and well cultured, and the cells were collected and seeded in 96-well plates at 3000/well, then the compounds were added to the 96 well plates in a gradient dilution, and the plates were incubated in an incubator for 72 hours.
(§2) After 72 hours of incubation, an equal volume of CellCounting
(§3) Lite 2.0 Luminescent Cell Viability reagent was added to the 96-well plates to detect the cell viability. The data were analyzed using GraphPad Prism 7.0 softwar e, and the nonlinear S-curve regression was used to fit the data to obtain the dose-effect curve, and the IC50 value was calculated accordingly.

NIH3T3 parental cells = assay: Exon 9 assay, parental cells: cell viability (CellCounting Lite 2.0), 72 hours; type: cell-based; conditions: Mus musculus
Description: as §1, §2, §3

Exon 11 KIT = Exon 11 KIT (Homo sapiens (Human), UniProt P10721, V560G); assay: Exon 11 HMC1.1 autophosphorylation assay (Phospho-Y719 c-KIT ELISA); type: cell-based; conditions: 90 minutes, read-out: IC50 HMC1.1 pKIT
Description: Exon 11 HMC1.1 autophosphorylation assay: 50,000 HMC1.1 cells were incubated in 50 ul culture media (phenol-red free IMDM, no iron, no serum) in each well of a 96-well plate and serum starved 4 hours in a tissue culture incubator (5% CO2, 37° C.). An 8-point dose concentration series of compound were then added to the cells in a volume of 7 ul to each well. After 90 minutes, 14 ul of 5× AlphaLISA Lysis Buffer (Perkin Elmer) supplemented with a protease and phosphatase inhibitor cocktail (Cell Signaling Technologies) was added to each well and shaken at […] for 5 minutes at 4° C. Phospho-Y719 c-KIT ELISA kit from Cell Signaling Technology was used to assess levels of phospho KIT.

wild type c-kit, sequence (P10721 26-976): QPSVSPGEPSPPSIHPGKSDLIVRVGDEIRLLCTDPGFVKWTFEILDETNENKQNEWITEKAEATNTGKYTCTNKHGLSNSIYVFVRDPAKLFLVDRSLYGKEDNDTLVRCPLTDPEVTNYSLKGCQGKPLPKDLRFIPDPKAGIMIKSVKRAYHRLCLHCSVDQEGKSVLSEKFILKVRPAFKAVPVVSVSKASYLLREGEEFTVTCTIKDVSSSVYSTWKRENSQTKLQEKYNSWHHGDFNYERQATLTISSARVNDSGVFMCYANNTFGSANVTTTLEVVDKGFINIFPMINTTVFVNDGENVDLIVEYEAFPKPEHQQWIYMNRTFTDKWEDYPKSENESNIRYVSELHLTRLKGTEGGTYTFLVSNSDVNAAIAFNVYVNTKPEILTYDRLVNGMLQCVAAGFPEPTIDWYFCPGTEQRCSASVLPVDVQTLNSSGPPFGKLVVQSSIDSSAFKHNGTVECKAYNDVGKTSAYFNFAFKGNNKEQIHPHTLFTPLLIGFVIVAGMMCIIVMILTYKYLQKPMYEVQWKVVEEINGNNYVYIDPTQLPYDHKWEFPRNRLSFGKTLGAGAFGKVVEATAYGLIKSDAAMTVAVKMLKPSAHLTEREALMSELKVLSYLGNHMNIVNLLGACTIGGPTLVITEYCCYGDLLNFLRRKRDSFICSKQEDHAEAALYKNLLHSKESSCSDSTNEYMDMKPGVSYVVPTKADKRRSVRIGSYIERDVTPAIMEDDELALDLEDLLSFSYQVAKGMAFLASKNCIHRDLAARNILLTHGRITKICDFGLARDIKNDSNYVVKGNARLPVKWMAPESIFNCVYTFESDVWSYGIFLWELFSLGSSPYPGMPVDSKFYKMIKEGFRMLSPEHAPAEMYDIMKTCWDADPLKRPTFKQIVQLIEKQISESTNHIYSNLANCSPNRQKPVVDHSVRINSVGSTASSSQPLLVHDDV
Exon 11 KIT, sequence (P10721 26-976 V560G): as the sequence (P10721 26-976) above, with V535G counted along it
human P-glycoprotein (P-gp, MDR1), sequence (P08183 whole entry): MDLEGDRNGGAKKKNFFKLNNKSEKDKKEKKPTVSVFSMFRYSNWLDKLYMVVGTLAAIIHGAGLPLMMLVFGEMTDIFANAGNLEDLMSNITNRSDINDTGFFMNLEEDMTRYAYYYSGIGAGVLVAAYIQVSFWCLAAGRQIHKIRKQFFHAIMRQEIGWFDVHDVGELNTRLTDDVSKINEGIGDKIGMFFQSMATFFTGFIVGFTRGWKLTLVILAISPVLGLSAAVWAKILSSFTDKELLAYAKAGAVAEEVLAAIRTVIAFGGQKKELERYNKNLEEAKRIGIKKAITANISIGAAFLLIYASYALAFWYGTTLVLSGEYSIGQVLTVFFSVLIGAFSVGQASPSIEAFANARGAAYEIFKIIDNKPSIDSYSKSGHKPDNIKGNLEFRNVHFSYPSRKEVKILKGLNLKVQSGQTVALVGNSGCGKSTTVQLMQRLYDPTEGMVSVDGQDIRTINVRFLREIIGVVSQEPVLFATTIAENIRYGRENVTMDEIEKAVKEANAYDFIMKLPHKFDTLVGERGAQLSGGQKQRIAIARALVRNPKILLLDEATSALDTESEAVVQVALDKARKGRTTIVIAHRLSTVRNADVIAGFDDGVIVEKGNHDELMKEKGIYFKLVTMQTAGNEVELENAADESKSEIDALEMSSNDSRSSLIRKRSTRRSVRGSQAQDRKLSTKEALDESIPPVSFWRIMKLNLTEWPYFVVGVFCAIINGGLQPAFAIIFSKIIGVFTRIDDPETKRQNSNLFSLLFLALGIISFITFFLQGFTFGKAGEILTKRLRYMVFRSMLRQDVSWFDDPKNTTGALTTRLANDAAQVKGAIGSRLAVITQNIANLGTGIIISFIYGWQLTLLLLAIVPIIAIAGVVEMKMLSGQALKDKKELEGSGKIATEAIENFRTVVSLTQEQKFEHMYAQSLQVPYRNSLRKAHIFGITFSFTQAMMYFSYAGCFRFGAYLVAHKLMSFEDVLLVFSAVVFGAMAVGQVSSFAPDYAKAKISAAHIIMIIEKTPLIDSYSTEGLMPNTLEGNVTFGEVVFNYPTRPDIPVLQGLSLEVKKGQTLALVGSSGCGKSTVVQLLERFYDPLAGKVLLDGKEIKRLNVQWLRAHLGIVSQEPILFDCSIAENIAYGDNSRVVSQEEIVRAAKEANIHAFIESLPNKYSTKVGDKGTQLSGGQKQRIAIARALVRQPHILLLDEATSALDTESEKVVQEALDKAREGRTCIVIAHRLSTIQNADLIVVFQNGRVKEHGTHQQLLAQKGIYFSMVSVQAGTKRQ

IC50 (wild type c-kit) | efflux ratio at 2 h, 1 µM [1] | IC50 (Exon 11 KIT) | SMILES | IC50 [2] | IC50 (NIH3T3 parental cells)
0.2 nM | 3 | 0.2 nM | COC[C@@H](O)Cn1cc(-c2ccn3ncc(C(=O)Nc4cc(-c5nnn(C6CC6)n5)ccc4Cl)c3c2)c(C)n1 [Example 263, (S)-N-(2-chloro-5-(2-cyclopropyl-2H-tetrazol-5-yl)phenyl)-5-(1-(2-hydroxy-3-methoxypropyl)-3-methyl-1H-pyrazol-4-yl)pyrazolo[1,5-a]pyridine-3-carboxamide] | 2 nM | 123 nM
0.2 nM |  |  | Cc1nn(C[C@H](C)O)cc1-c1ccn2ncc(C(=O)Nc3cc(-c4nnn(C5CC5)n4)c(F)cc3Cl)c2c1 [Example 280, (S)—N-(2-chloro-5-(2-cyclopropyl-2H-tetrazol-5-yl)-4-fluorophenyl)-5-(1-(2-hydroxypropyl)-3-methyl-1H-pyrazol-4-yl)pyrazolo[1,5-a]pyridine-3-carboxamide] | 10 nM | 413 nM
0.3 nM |  |  | COCCOC[C@H](O)Cn1cc(-c2ccn3ncc(C(=O)Nc4cc(-c5nnn(C6CC6)n5)c(F)cc4Cl)c3c2)c(C)n1 [Example 286, (R)—N-(2-chloro-5-(2-cyclopropyl-2H-tetrazol-5-yl)-4-fluorophenyl)-5-(1-(2-hydroxy-3-(2-methoxyethoxy)propyl)-3-methyl-1H-pyrazol-4-yl)pyrazolo[1,5-a]pyridine-3-carboxamide] | 42.5 nM | 480 nM
0.2 nM |  | 0.2 nM | CCn1nnc(-c2ccc(Cl)c(NC(=O)c3cnn4ccc(-c5cn(C[C@H](O)COC)nc5C)cc34)c2)n1 [Example 284, (S)—N-(2-chloro-5-(2-ethyl-2H-tetrazol-5-yl)phenyl)-5-(1-(2-hydroxy-3-methoxypropyl)-3-methyl-1H-pyrazol-4-yl)pyrazolo[1,5-a]pyridine-3-carboxamide] | 7.5 nM | 161 nM
